Laboratory results as given in ChEMBL document CHEMBL1201862, “PubChem BioAssay data set” (2004).
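96-well plates; 48 h exposure; 5 concentrations. Endpoints by linear interpolation between flanking doses. Not reached: highest tested concentration assigned. GI50 marks 50% less growth.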 Activity calls are given as the source filed them. Cut-off read from the data, not from the text of the source: active = GI50 up to about 1.1 µM and inactive = higher.

Key:
Assay in all cases: NCI tumour cell line growth inhibition, 48 h
EKVX = tested on: EKVX
OVCAR-4 = tested on: OVCAR-4
SF-268 = tested on: SF-268
HOP-92 = tested on: HOP-92
SF-295 = tested on: SF-295
NCI-H226 = tested on: NCI-H226
SK-OV-3 = tested on: SK-OV-3
Malme-3M = tested on: Malme-3M
HCC 2998 = tested on: HCC 2998
SK-MEL-28 = tested on: SK-MEL-28
NCI-H23 = tested on: NCI-H23
K562 = tested on: K562
OVCAR-8 = tested on: OVCAR-8
SNB-75 = tested on: SNB-75
UACC-257 = tested on: UACC-257
NCI-H460 = tested on: NCI-H460
SK-MEL-5 = tested on: SK-MEL-5

Measured: GI50

CCOc1ccc(/N=N/c2c(-c3ccccc3)nn(C(=O)CC(=O)Nc3ccccc3Cl)c2-c2ccccc2)cc1
inactive: EKVX 44 µM | OVCAR-4 47.4 µM | SF-268 39 µM | HOP-92 48.8 µM | SF-295 68.5 µM | NCI-H226 65.9 µM | SK-OV-3 > 100 µM | Malme-3M > 100 µM | HCC 2998 41.5 µM | SK-MEL-28 27.7 µM | NCI-H23 56.9 µM | K562 30.2 µM | OVCAR-8 89.7 µM | SNB-75 21.2 µM | UACC-257 80.4 µM | NCI-H460 46.5 µM | SK-MEL-5 44.6 µM

Clc1cccc(C2SCc3nc4ccccc4n32)c1Cl (centres undefined)
inactive: EKVX 16.2 µM | OVCAR-4 13.9 µM | SF-268 21 µM | HOP-92 15.2 µM | SF-295 16.5 µM | SK-OV-3 20.1 µM | SK-MEL-28 21.1 µM | NCI-H23 17.8 µM | K562 12.8 µM | OVCAR-8 19 µM | SNB-75 4.51 µM | UACC-257 15.2 µM | NCI-H460 18.5 µM | SK-MEL-5 14.1 µM

COc1c(-c2ccccc2)nc2ccc(Oc3ccccc3)nn12
inactive: EKVX > 100 µM | OVCAR-4 > 36.3 µM | SF-268 > 56.4 µM | HOP-92 > 100 µM | SF-295 > 62.8 µM | NCI-H226 29.7 µM | SK-OV-3 > 100 µM | Malme-3M 37.8 µM | HCC 2998 > 64.9 µM | SK-MEL-28 > 51.8 µM | NCI-H23 > 49 µM | K562 14.6 µM | OVCAR-8 > 64 µM | SNB-75 > 57.5 µM | UACC-257 > 54.8 µM | NCI-H460 36.6 µM | SK-MEL-5 33.2 µM

CC(NC(=O)c1ccccc1)C(=O)N(Cc1ccccc1)Cc1ccccc1 (centres undefined)
inactive: OVCAR-4 31.2 µM | SF-268 35.4 µM | HOP-92 23.6 µM | SF-295 27.4 µM | NCI-H226 23.4 µM | SK-OV-3 33.7 µM | Malme-3M 24.5 µM | HCC 2998 35.6 µM | SK-MEL-28 25.7 µM | NCI-H23 24.5 µM | K562 15.3 µM | SNB-75 > 100 µM | UACC-257 40.2 µM | NCI-H460 27.4 µM | SK-MEL-5 22.5 µM

CCOC(=O)C1C(=O)C(C(=O)OCC)C(c2ccccc2)N(C)C1c1ccccc1 (centres undefined)
inactive: EKVX > 100 µM | OVCAR-4 > 100 µM | SF-268 > 100 µM | HOP-92 > 100 µM | SF-295 > 100 µM | NCI-H226 > 100 µM | SK-OV-3 > 100 µM | Malme-3M > 100 µM | SK-MEL-28 > 100 µM | NCI-H23 > 100 µM | K562 > 100 µM | OVCAR-8 > 100 µM | SNB-75 > 100 µM | UACC-257 > 100 µM | NCI-H460 > 100 µM | SK-MEL-5 66.4 µM

Nc1nc2c3nc(Nc4ccccc4)sc3nc(=O)n2c2sc(Nc3ccccc3)nc12
inactive: EKVX > 100 µM | OVCAR-4 > 100 µM | SF-268 > 100 µM | HOP-92 > 100 µM | SF-295 > 100 µM | NCI-H226 > 100 µM | SK-OV-3 > 100 µM | Malme-3M > 100 µM | HCC 2998 > 100 µM | SK-MEL-28 > 100 µM | NCI-H23 > 100 µM | K562 > 100 µM | OVCAR-8 > 100 µM | SNB-75 > 100 µM | UACC-257 > 100 µM | SK-MEL-5 > 100 µM

N=C1N(c2ccccc2)C(=O)C23CCCC2C13N1CCOCC1 (centres undefined)
inactive: EKVX > 100 µM | OVCAR-4 > 100 µM | SF-268 > 100 µM | HOP-92 > 100 µM | SF-295 > 100 µM | NCI-H226 > 100 µM | SK-OV-3 > 100 µM | Malme-3M > 100 µM | HCC 2998 > 100 µM | SK-MEL-28 > 100 µM | NCI-H23 > 100 µM | K562 > 100 µM | OVCAR-8 > 100 µM | SNB-75 > 100 µM | UACC-257 > 100 µM | NCI-H460 > 100 µM | SK-MEL-5 > 100 µM

NNC(=S)N/N=C(\CC1OC(=O)c2ccccc21)c1ccccc1O (centres undefined)
inactive: EKVX 78.7 µM | OVCAR-4 88.7 µM | SF-268 50 µM | HOP-92 70.8 µM | SF-295 20.3 µM | NCI-H226 33.6 µM | SK-OV-3 > 100 µM | Malme-3M 30.4 µM | HCC 2998 32.7 µM | SK-MEL-28 57.1 µM | NCI-H23 49.9 µM | K562 60.5 µM | OVCAR-8 30.8 µM | SNB-75 42.6 µM | UACC-257 > 100 µM | NCI-H460 40.8 µM | SK-MEL-5 42.3 µM

C1CCN(c2nc(=[N+]3CCCCC3)ss2)CC1
inactive: EKVX > 100 µM | OVCAR-4 > 100 µM | SF-268 82 µM | HOP-92 > 100 µM | SF-295 > 100 µM | NCI-H226 19.1 µM | SK-OV-3 71.9 µM | Malme-3M > 100 µM | HCC 2998 > 100 µM | SK-MEL-28 84.9 µM | NCI-H23 73.3 µM | K562 90.6 µM | OVCAR-8 > 100 µM | SNB-75 > 100 µM | UACC-257 > 100 µM | NCI-H460 48.8 µM | SK-MEL-5 > 100 µM

C/C=C/COC(=O)CO[N+](=O)[O-]
inactive: EKVX > 100 µM | OVCAR-4 > 100 µM | SF-268 > 100 µM | HOP-92 > 100 µM | SF-295 > 100 µM | NCI-H226 > 100 µM | SK-OV-3 > 100 µM | Malme-3M > 100 µM | HCC 2998 > 100 µM | NCI-H23 > 100 µM | K562 > 100 µM | OVCAR-8 > 100 µM | SNB-75 > 100 µM | UACC-257 > 100 µM | NCI-H460 > 100 µM

CCCCCCC(C)CCCCCCCCCCC(=O)O (centres undefined)
inactive: EKVX > 100 µM | OVCAR-4 > 100 µM | SF-268 > 100 µM | HOP-92 > 100 µM | SF-295 > 100 µM | NCI-H226 > 100 µM | SK-OV-3 > 100 µM | Malme-3M > 100 µM | SK-MEL-28 > 100 µM | NCI-H23 > 100 µM | K562 > 100 µM | OVCAR-8 > 100 µM | SNB-75 > 100 µM | UACC-257 > 100 µM | NCI-H460 > 100 µM | SK-MEL-5 > 100 µM

CCCCC(/C=N/NC(=N)N)CC.Cc1cc(O)c(C(C)C)cc1S(=O)(=O)O
inactive: EKVX 30.8 µM | SF-268 > 100 µM | SF-295 42.5 µM | NCI-H226 18.2 µM | SK-OV-3 59.8 µM | Malme-3M 43.9 µM | HCC 2998 17.5 µM | SK-MEL-28 40.6 µM | NCI-H23 35 µM | K562 26.5 µM | OVCAR-8 > 100 µM | SNB-75 54 µM | UACC-257 41.3 µM | NCI-H460 46.6 µM

Cc1ccc(/C=C/C(=O)c2ccc(Cl)c(Cl)c2)cc1
inactive: EKVX > 100 µM | OVCAR-4 > 100 µM | SF-268 > 100 µM | SF-295 > 100 µM | NCI-H226 > 100 µM | SK-OV-3 > 10 µM | Malme-3M > 100 µM | HCC 2998 > 100 µM | SK-MEL-28 > 100 µM | NCI-H23 > 100 µM | K562 > 100 µM | OVCAR-8 > 100 µM | SNB-75 > 100 µM | UACC-257 > 100 µM | NCI-H460 > 100 µM | SK-MEL-5 > 100 µM

O=C1CCNC(=O)NC1
inactive: EKVX > 100 µM | OVCAR-4 > 100 µM | SF-268 > 100 µM | HOP-92 > 100 µM | SF-295 > 100 µM | NCI-H226 > 100 µM | SK-OV-3 > 100 µM | Malme-3M > 100 µM | SK-MEL-28 > 100 µM | K562 > 100 µM | OVCAR-8 > 100 µM | SNB-75 > 100 µM | UACC-257 > 100 µM | NCI-H460 > 100 µM | SK-MEL-5 > 100 µM

Clc1ccc(C2N3CCCCC3[C@@H]3c4[nH]c5ccccc5c4CCN23)cc1 (some centres undefined)
inactive: EKVX 81.7 µM | OVCAR-4 56.1 µM | SF-268 57.9 µM | HOP-92 > 100 µM | SF-295 67.1 µM | SK-OV-3 > 100 µM | Malme-3M 19.7 µM | HCC 2998 34.9 µM | SK-MEL-28 > 100 µM | NCI-H23 42.9 µM | K562 38 µM | OVCAR-8 > 100 µM | SNB-75 80.5 µM | UACC-257 83 µM | NCI-H460 61.8 µM | SK-MEL-5 59 µM

Cc1ccccc1NC(=O)CC1C(=O)Nc2ccccc2[S+]1[O-] (centres undefined)
inactive: EKVX > 100 µM | OVCAR-4 71.6 µM | SF-268 > 100 µM | HOP-92 52.7 µM | SF-295 > 100 µM | NCI-H226 > 100 µM | Malme-3M > 100 µM | HCC 2998 > 100 µM | SK-MEL-28 > 100 µM | NCI-H23 > 100 µM | K562 > 100 µM | OVCAR-8 47.9 µM | SNB-75 25.6 µM | UACC-257 > 100 µM | NCI-H460 > 100 µM | SK-MEL-5 > 100 µM

COc1cc(/C=C/c2cccnc2)cc(OC)c1OC
inactive: EKVX 66.1 µM | OVCAR-4 > 100 µM | SF-268 > 100 µM | HOP-92 31.8 µM | SF-295 > 100 µM | NCI-H226 > 100 µM | Malme-3M > 100 µM | SK-MEL-28 > 100 µM | NCI-H23 > 100 µM | K562 > 100 µM | OVCAR-8 > 100 µM | SNB-75 45.7 µM | UACC-257 > 100 µM | NCI-H460 > 100 µM | SK-MEL-5 47.5 µM
